From PubChem BioAssay (NCI) come the findings set out here.

Holding throughout (test): NCI anticancer screen, dose series, 48 h
Assay [1] relates to NCI-H23 lung.
The subject of assay [2] is CCRF-CEM leukemia.
Assay [3] deals with U251 CNS.
Assay [4] relates to HOP-62 NSCLC.
Assay [5] has as its system SF-268 CNS.
In assay [6] the test system is A498 renal.
Assay [7] concerns HL-60(TB) leukemia.
Assay [8] has as its system HCT-15 colon.
In assay [9] the test system is 786-0 renal.
Assay [10] relates to SK-MEL-28 melanoma.

Several values for one entry are separate records, joined by “and”; a condition that tells them apart may be missing. Equal values may be shown once.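 48-hour exposure; five concentrations; linearly interpolated endpoints. GI50: concentration for 50% inhibition of growth. At the TGI there is no net growth.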

As for `CC[C@]12C=CCN3CC[C@]4(C(=C(C(=O)OC)C1)Nc1cc(O)ccc14)[C@@H]32`, the GI50 in [1] was 16.8 µM; in assay [2], 25.3 µM; in [3], 15.6 µM; in assay [4] it was 17.2 µM; in [5], 20.7 µM; in assay [6], 18.1 µM. Moreover, the GI50 in assay [7] is 25.8 µM; in [8], 14.6 µM; in assay [9], 15.7 µM; in [10], 17 µM. Moreover, the TGI is 37.7 µM in assay [1]; greater than 100 µM in [2]; 36.9 µM in [3]; 38.9 µM in assay [4]; 53.2 µM in [5]; 36.5 µM in [6]. For the same molecule, the TGI in [7] amounted to 72.5 µM; in [8] it was 36.5 µM; in assay [9], 40.8 µM; in assay [10], 42.5 µM.
Regarding `Nc1ncnc2occ(-c3ccc(NC(=O)Nc4cc(C(F)(F)F)cc(C(F)(F)F)c4)cc3)c12`, the GI50 in [1] was 3.12 µM; in assay [2], 4.5 µM; in assay [3], 3.28 µM; in assay [4], 3.66 µM; in assay [5] it was 2.92 µM; in [6], 0.144 µM. The GI50 in assay [7] was 4.13 µM; in assay [8], 2.98 µM; in assay [9] it was 3.54 µM; in assay [10], 4.24 µM. Moreover, the TGI turned out to be 6.86 µM in assay [1]; 19.2 µM in assay [2]; 6.64 µM in [3]; 6.99 µM in [4]; 6.66 µM in assay [5]; 1.62 µM in [6]. The TGI in assay [7] worked out at 12.9 µM; in [8], 7.83 µM; in [9] it was 7.07 µM; in [10], 7.77 µM.
`CCOP(=O)(OCC)/C(C#N)=C\c1cccc2ccccc12`: the TGI in assay [1] was greater than 100 µM; in assay [2], 97.7 µM; in assay [3] it was greater than 100 µM; in assay [4], greater than 100 µM; in assay [5], 64.9 µM; in [6], 98.7 µM. The TGI was greater than 62.8 µM in assay [7], greater than 100 µM in assay [8], greater than 100 µM in [9] and greater than 100 µM in [10].
Regarding `O=C(N[C@@H]1CCCc2ccccc21)[C@H](CCC(=O)N1CCN(C2CCCCC2)CC1)N1C(=O)[C@@H](N2C(=O)OC[C@@H]2c2ccccc2)[C@H]1/C=C/c1ccccc1`, the GI50 in assay [1] is 3.7 µM; in assay [2] it was 2.83 µM; in assay [3], 2.2 µM; in [4], 3.87 µM; in assay [5] it was 1.3 µM; in [6], 1.76 µM. Also, the GI50 is 2.1 µM in assay [7], 2.97 µM in assay [8], 1.86 µM in [9] and 1.77 µM in assay [10]. For the same molecule, the TGI in [1] was 19.7 µM; in assay [2], 8.87 µM; in assay [3] it was 5.42 µM; in [4] it was 17.4 µM; in assay [5] it was 3.04 µM; in assay [6], 5.3 µM. For the same molecule, the TGI in [7] came out at 5.71 µM; in assay [8], 12.3 µM; in assay [9] it was 4.07 µM; in [10], 3.67 µM.
For `COc1ccc2nc3ccc(OC)cc3c(SCCCN)c2c1`, the GI50 in assay [1] is 5.37 µM; in assay [2], 1.76 µM; in assay [3], 9.09 µM; in assay [4] it was 20.3 µM; in [5] it was 4.67 µM; in assay [6] it was 19.4 µM. Further, the GI50 is 4.34 µM in assay [7], 3.17 µM in assay [8], 6.85 µM in [9] and 1.99 µM in [10]. Moreover, the TGI in assay [1] is 15.4 µM; in assay [2], 4.11 µM; in assay [3], greater than 67.3 µM; in [4] it was 45.8 µM; in assay [5], 14.5 µM; in [6], 56.5 µM. Also, the TGI in [7] is 9.49 µM; in assay [8], 20.2 µM; in [9] it was 15.2 µM; in assay [10], 3.86 µM.
Consider `Oc1cc2cc(-c3ccccc3)[nH]c2c2ccccc12`, for which the TGI was 36.6 µM in assay [1]; greater than 100 µM in assay [2]; greater than 100 µM in assay [3]; greater than 100 µM in [4]; greater than 100 µM in assay [5]; greater than 100 µM in [6]. The TGI in [7], in [8], in assay [9] and in assay [10] was greater than 100 µM each time.
`COc1ccccc1C(=O)c1cnc(NC2CCN(S(C)(=O)=O)CC2)nc1N`: the GI50 in assay [1] is 5.71 µM; in assay [2], 7.04 µM; in assay [3], 4.06 µM; in assay [4], 7.73 µM; in assay [5], 7.35 µM; in assay [6] it was 6 µM. For the same molecule, the GI50 in assay [7] is 3.96 µM; in [8] it was 6.28 µM; in assay [9], 8.15 µM; in assay [10], 6.38 µM. In addition, the TGI in assay [1] is greater than 25 µM; in assay [2], greater than 24.1 µM; in assay [3], greater than 25 µM; in [4], greater than 25 µM; in assay [5], greater than 25 µM; in [6], 22 µM. Further, the TGI in assay [7] was 14.3 µM; in assay [8] it was greater than 25 µM; in assay [9], greater than 25 µM; in assay [10], greater than 25 µM.
With `c1ccc2c(c1)nc(NCCN1CCNCC1)c1c3ccccc3[nH]c21`, the GI50 is 0.666 µM in [1]; 0.086 µM in assay [2]; 0.377 µM in assay [3]; 0.404 µM in assay [4]; 0.39 µM in assay [5]; 1.56 µM in assay [6]. In addition, the GI50 in assay [7] is 0.308 µM; in assay [8], 0.176 µM; in assay [9], 0.342 µM; in assay [10], 1.37 µM. The TGI stood at 2.03 µM in [1]; 1.82 µM in [2]; 1.94 µM in [3]; 2.2 µM in assay [4]; 2.01 µM in assay [5]; 3.27 µM in [6]. Besides, the TGI in assay [7] is 1.36 µM; in [8] it was 0.7 µM; in assay [9], 1.6 µM; in assay [10], 2.8 µM.
With `CC(=O)[CH-]C(=O)c1ccccc1.CC(=O)[CH-]C(=O)c1ccccc1.[O]=[U+2]=[O]`, the GI50 in assay [1] was 46.9 µM; in [2] it was 27.8 µM; in assay [3], 35.5 µM; in assay [4], 23.8 µM; in assay [5] it was 58.2 µM; in assay [6] it was 28.7 µM. The GI50 in assay [7] was 29.6 µM; in assay [8], 35.1 µM; in assay [9] it was 40.2 µM; in assay [10] it was 36.2 µM. For the same molecule, the TGI in assay [1] is greater than 100 µM; in assay [2] it was greater than 100 µM; in [3], greater than 100 µM; in assay [4] it was 66.2 µM; in assay [5], greater than 100 µM; in [6], 96.9 µM. Besides, the TGI in assay [7] is 80.3 µM; in assay [8] it was greater than 100 µM; in [9], greater than 100 µM; in assay [10] it was greater than 100 µM.
For `O=c1c2ccccc2nc(-c2ccccc2)n1NCC1(O)OCC(O)C(O)C1O` (centres undefined), the TGI in assay [1], in assay [2], in [3], in [4], in assay [5] and in assay [6] was greater than 100 µM in each case. Besides, the TGI in assay [7], in assay [8], in assay [9] and in [10] was greater than 100 µM throughout.
With `Cc1cc(CS(=O)(=O)/C=C/c2ccccc2[N+](=O)[O-])c(CS(=O)(=O)/C=C/c2ccccc2[N+](=O)[O-])cc1C`, the TGI is greater than 51.7 µM in assay [1]; greater than 46.4 µM in assay [2]; 71.3 µM in assay [3]; 49.4 µM in [4]; greater than 100 µM in assay [5]; 70.9 µM in assay [6]. Moreover, the TGI in assay [7] is greater than 100 µM; in assay [8], greater than 100 µM; in assay [9], 34.9 µM; in assay [10] it was greater than 100 µM.
Consider `N#CC1c2ccccc2-c2ccccc2N1C(=O)c1ccccc1` (centres undefined), for which the GI50 in assay [1] was 3.09 µM; in [2] it was 2.17 µM; in assay [3] it was 2.68 µM; in [4] it was 4.46 µM; in assay [5], 3.03 µM; in assay [6], 1.32 µM. Further, the GI50 was 0.337 µM in [7], 1.38 µM in assay [8], 3.53 µM in assay [9] and 1.75 µM in assay [10]. Besides, the TGI was greater than 100 µM in [1]; greater than 36.3 µM in [2]; greater than 46.7 µM in assay [3]; greater than 100 µM in [4]; 23.4 µM in assay [5]; 5.55 µM in assay [6]. Besides, the TGI is greater than 100 µM in assay [8], greater than 88.1 µM in [9] and greater than 100 µM in assay [10].
With `COc1cc2oc3ccccc3c(=O)c2cc1CSc1ccccc1N`, the TGI in assay [1] was greater than 100 µM; in assay [2], 45.6 µM; in assay [3], greater than 100 µM; in [4], greater than 93.3 µM; in [5], greater than 100 µM; in assay [6], greater than 73.5 µM. The TGI in assay [7] is 64.8 µM; in assay [8], greater than 100 µM; in [9] it was greater than 100 µM; in assay [10], 98.2 µM.
As to `O=C(Oc1c(I)ccccc1=O)c1ccc([N+](=O)[O-])cc1`, the TGI in assay [1] is 99.6 µM; in [2], greater than 100 µM; in assay [3], 57.9 µM; in [4], greater than 100 µM; in assay [5], 39.8 µM; in [6], 17 µM. The TGI was 46.5 µM in assay [7], 31.7 µM in assay [8], greater than 100 µM in assay [9] and 21.7 µM in [10].
`O=C(CCCCCCCCC(=O)OCC1OC(n2cnc3c(=O)[nH]cnc32)C(O)C1O)OCC1OC(n2cnc3c(=O)[nH]cnc32)C(O)C1O` (centres undefined): the TGI in assay [1], in assay [2], in assay [3], in assay [4], in [5] and in assay [6] was greater than 100 µM in each case. For the same molecule, the TGI in [7], in assay [8], in assay [9] and in assay [10] was greater than 100 µM each time.
Turning to `CCCC/C(=N\N=C(N)N)c1ccc(F)cc1`, the GI50 in assay [1] is 3.34 µM; in assay [2] it was 2.23 µM; in assay [3], 2.36 µM; in assay [4], 3.81 µM; in [5], 5.58 µM; in assay [6], 2.59 µM. Moreover, the GI50 in assay [7] is 2.29 µM; in assay [8], 2.49 µM; in assay [9] it was 3.93 µM; in assay [10] it was 4.21 µM. Moreover, the TGI in assay [1] stood at 17.1 µM; in assay [2] it was 11.7 µM; in assay [3] it was 10.2 µM; in assay [4], 15.8 µM; in assay [5], 20.8 µM; in [6], 8.08 µM. Further, the TGI was found to be 6.09 µM in assay [7], 14.2 µM in assay [8], 16.2 µM in [9] and 17.6 µM in assay [10].
`O=C1c2c(O)cccc2C(C(=O)CCCCC(=O)C2c3cccc(O)c3C(=O)c3c(O)cccc32)c2cccc(O)c21`: the GI50 in assay [1] was 1.25 µM; in assay [2] it was 1.2 µM; in assay [3], 1.02 µM; in assay [4], 1.05 µM; in [5] it was 2.25 µM; in [6] it was 2.14 µM. Moreover, the GI50 in assay [7] is 0.744 µM; in assay [8], 1.75 µM; in [9], 4.83 µM; in [10], 1.54 µM. Moreover, the TGI in assay [1] is 1.56 µM and 2.59 µM; in assay [2], 2.65 µM and 2.61 µM; in assay [3] it was 1.01 µM and 2.22 µM; in assay [4] it was 1.66 µM and 2.52 µM; in assay [5], 2.39 µM and 6.86 µM; in assay [6] it was 5.27 µM and 7.36 µM. Also, the TGI in assay [7] is 1.14 µM and 1.67 µM; in [8], 2.6 µM and 5.12 µM; in assay [9] it was 5.53 µM and 10.7 µM; in [10], 2.5 µM and 3.27 µM.
